Measured values reported in PubChem BioAssay AID1963846 (Molecular Pharmacology Branch, DTP, NCI, 2024).

Test system: 454973-116-R2-J3-PDC complex spheroid viability
Experiment: Anticancer human tumor 454973-116-R2-J3-PDC patient-derived pancreatic carcinoma cell line growth inhibition [POLQ]
Conditions: for IC50: curve of first compound; for viability, T/C: stronger effect = lower value
Procedure, shortened: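 Growth inhibition in 3D: complex spheroids (tumor PDC, HUVEC, MSC) treated with POLQ inhibitor combinations; where Cmax unknown, highest tested concentration 10 microM, except SN-38 at 1 microM.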

[1] = second compound 0.0316 µM, first compound 0.00316 µM
[2] = second compound 0.0316 µM, first compound 0.01 µM
[3] = second compound 0.0316 µM, first compound 0.0316 µM
[4] = second compound 0.0316 µM, first compound 0.1 µM
[5] = second compound 0.1 µM, first compound 0.00316 µM
[6] = second compound 0.1 µM, first compound 0.01 µM
[7] = second compound 0.1 µM, first compound 0.0316 µM
[8] = second compound 0.1 µM, first compound 0.1 µM
[9] = second compound 0.316 µM, first compound 0.00316 µM
[10] = second compound 0.316 µM, first compound 0.01 µM
[11] = second compound 0.316 µM, first compound 0.0316 µM
[12] = second compound 0.316 µM, first compound 0.1 µM
[13] = second compound 1 µM, first compound 0.00316 µM
[14] = second compound 1 µM, first compound 0.01 µM
[15] = second compound 1 µM, first compound 0.0316 µM
[16] = second compound 1 µM, first compound 0.1 µM
[17] = second compound 3.16 µM, first compound 0.00316 µM
[18] = second compound 3.16 µM, first compound 0.01 µM
[19] = second compound 3.16 µM, first compound 0.0316 µM
[20] = second compound 3.16 µM, first compound 0.1 µM
[21] = second compound 10 µM, first compound 0.00316 µM
[22] = second compound 10 µM, first compound 0.01 µM
[23] = second compound 10 µM, first compound 0.0316 µM
[24] = second compound 10 µM, first compound 0.1 µM
[25] = second compound 0.0316 µM, first compound 0.316 µM
[26] = second compound 0.0316 µM, first compound 1 µM
[27] = second compound 0.1 µM, first compound 0.316 µM
[28] = second compound 0.1 µM, first compound 1 µM
[29] = second compound 0.316 µM, first compound 0.316 µM
[30] = second compound 0.316 µM, first compound 1 µM
[31] = second compound 1 µM, first compound 0.316 µM
[32] = second compound 1 µM, first compound 1 µM
[33] = second compound 3.16 µM, first compound 0.316 µM
[34] = second compound 3.16 µM, first compound 1 µM
[35] = second compound 10 µM, first compound 0.316 µM
[36] = second compound 10 µM, first compound 1 µM
[37] = second compound 0.0316 µM, first compound 3.16 µM
[38] = second compound 0.0316 µM, first compound 10 µM
[39] = second compound 0.1 µM, first compound 3.16 µM
[40] = second compound 0.1 µM, first compound 10 µM
[41] = second compound 0.316 µM, first compound 3.16 µM
[42] = second compound 0.316 µM, first compound 10 µM
[43] = second compound 1 µM, first compound 3.16 µM
[44] = second compound 1 µM, first compound 10 µM
[45] = second compound 3.16 µM, first compound 3.16 µM
[46] = second compound 3.16 µM, first compound 10 µM
[47] = second compound 10 µM, first compound 3.16 µM
[48] = second compound 10 µM, first compound 10 µM
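Note: spheroids exposed to drugs for seven days before measurement.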
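Throughout, for viability, T/C: percent viability relative to DMSO vehicle control wells taken as 100%.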

Work on `CC[C@@]1(O)C(=O)OCc2c1cc1n(c2=O)Cc2cc3c(CN(C)C)c(O)ccc3nc2-1` + COC1C(OC(N)=O)C(O)C(Oc2ccc3c(O)c(NC(=O)c4ccc(O)c(CC=C(C)C)c4)c(=O)oc3c2C)OC1(C)C yielded an IC50 (second compound 0.0316 µM) of 20 nM, an IC50 (second compound 0.1 µM) of 17.8 nM and an IC50 (second compound 0.316 µM) of 18.4 nM. It also gave an IC50 (second compound 1 µM) of 18.9 nM, an IC50 (second compound 3.16 µM) of 18.3 nM and an IC50 (second compound 10 µM) of 17.5 nM. The viability, T/C (second compound 0.0316 µM, first compound 0.000316 µM) was 113%, the viability, T/C (second compound 0.0316 µM, first compound 0.001 µM) was 106% and the viability, T/C [1] was 105%. It also gave a viability, T/C [2] of 86.8%, a viability, T/C [3] of 25.5% and a viability, T/C [4] of 14.9%. For the same compound, the viability, T/C (second compound 0.1 µM, first compound 0.000316 µM) was 106%, the viability, T/C (second compound 0.1 µM, first compound 0.001 µM) was 106% and the viability, T/C [5] was 103%. For the same compound, the viability, T/C [6] was 82.6%, the viability, T/C [7] was 17.1% and the viability, T/C [8] was 16.3%. It also gave a viability, T/C (second compound 0.316 µM, first compound 0.000316 µM) of 109%, a viability, T/C (second compound 0.316 µM, first compound 0.001 µM) of 100% and a viability, T/C [9] of 108%. The viability, T/C [10] was 88.9%, the viability, T/C [11] was 15.8% and the viability, T/C [12] was 13.8%. The viability, T/C (second compound 1 µM, first compound 0.000316 µM) was 113%, the viability, T/C (second compound 1 µM, first compound 0.001 µM) was 101% and the viability, T/C [13] was 108%. It also gave a viability, T/C [14] of 91.1%, a viability, T/C [15] of 15.8% and a viability, T/C [16] of 18.1%. It also gave a viability, T/C (second compound 3.16 µM, first compound 0.000316 µM) of 110%, a viability, T/C (second compound 3.16 µM, first compound 0.001 µM) of 113% and a viability, T/C [17] of 107%. For the same compound, the viability, T/C [18] was 79.6%, the viability, T/C [19] was 22.8% and the viability, T/C [20] was 19%. The viability, T/C (second compound 10 µM, first compound 0.000316 µM) was 109%, the viability, T/C (second compound 10 µM, first compound 0.001 µM) was 104% and the viability, T/C [21] was 99.9%. For the same compound, the viability, T/C [22] was 76.5%, the viability, T/C [23] was 21.4% and the viability, T/C [24] was 20.3%.
In the case of `CCc1c2c(nc3ccc(O)cc13)-c1cc3c(c(=O)n1C2)COC(=O)[C@]3(O)CC` + COC1C(OC(N)=O)C(O)C(Oc2ccc3c(O)c(NC(=O)c4ccc(O)c(CC=C(C)C)c4)c(=O)oc3c2C)OC1(C)C, the IC50 (second compound 0.0316 µM) is reported as < 3.16 nM, the IC50 (second compound 0.1 µM) is reported as < 3.16 nM and the IC50 (second compound 0.316 µM) is reported as < 3.16 nM. For the same compound, the IC50 (second compound 1 µM) was < 3.16 nM, the IC50 (second compound 3.16 µM) was < 3.16 nM and the IC50 (second compound 10 µM) was < 3.16 nM. For the same compound, the viability, T/C [1] was 37.3%, the viability, T/C [2] was 16.3% and the viability, T/C [3] was 8.76%. The viability, T/C [4] was 4.34%, the viability, T/C [25] was 4.57% and the viability, T/C [26] was 0.92%. The viability, T/C [5] was 38.9%, the viability, T/C [6] was 13.7% and the viability, T/C [7] was 10.5%. The viability, T/C [8] was 6.92%, the viability, T/C [27] was 2.75% and the viability, T/C [28] was 1.04%. For the same compound, the viability, T/C [9] was 37.1%, the viability, T/C [10] was 15.8% and the viability, T/C [11] was 14.7%. For the same compound, the viability, T/C [12] was 4.68%, the viability, T/C [29] was 2.98% and the viability, T/C [30] was 1.19%. The viability, T/C [13] was 34.1%, the viability, T/C [14] was 14.2% and the viability, T/C [15] was 12.5%. For the same compound, the viability, T/C [16] was 6.32%, the viability, T/C [31] was 3.96% and the viability, T/C [32] was 3.08%. It also gave a viability, T/C [17] of 31.2%, a viability, T/C [18] of 13.9% and a viability, T/C [19] of 9.37%. The viability, T/C [20] was 4.13%, the viability, T/C [33] was 2.03% and the viability, T/C [34] was 2.74%. For the same compound, the viability, T/C [21] was 29.1%, the viability, T/C [22] was 15.1% and the viability, T/C [23] was 11.4%. The viability, T/C [24] was 6.62%, the viability, T/C [35] was 3.37% and the viability, T/C [36] was 1.53%.
`Nc1ccn(C2OC(CO)C(O)C2(F)F)c(=O)n1` (stereo not drawn) + COC1C(OC(N)=O)C(O)C(Oc2ccc3c(O)c(NC(=O)c4ccc(O)c(CC=C(C)C)c4)c(=O)oc3c2C)OC1(C)C was tested, and the IC50 (second compound 0.0316 µM) was < 31.6 nM, the IC50 (second compound 0.1 µM) was < 31.6 nM and the IC50 (second compound 0.316 µM) was < 31.6 nM. The IC50 (second compound 1 µM) was < 31.6 nM, the IC50 (second compound 3.16 µM) was < 31.6 nM and the IC50 (second compound 10 µM) was < 31.6 nM. It also gave a viability, T/C [3] of 14.4%, a viability, T/C [4] of 8.27% and a viability, T/C [25] of 11.6%. It also gave a viability, T/C [26] of 11.3%, a viability, T/C [37] of 11.7% and a viability, T/C [38] of 12.9%. It also gave a viability, T/C [7] of 12.6%, a viability, T/C [8] of 11.2% and a viability, T/C [27] of 10.2%. The viability, T/C [28] was 11.4%, the viability, T/C [39] was 11.2% and the viability, T/C [40] was 10.5%. For the same compound, the viability, T/C [11] was 10.3%, the viability, T/C [12] was 9.75% and the viability, T/C [29] was 10.9%. It also gave a viability, T/C [30] of 11%, a viability, T/C [41] of 15.1% and a viability, T/C [42] of 10.2%. It also gave a viability, T/C [15] of 12%, a viability, T/C [16] of 11.9% and a viability, T/C [31] of 13.1%. The viability, T/C [32] was 13.4%, the viability, T/C [43] was 11.2% and the viability, T/C [44] was 14.5%. It also gave a viability, T/C [19] of 12.2%, a viability, T/C [20] of 15.2% and a viability, T/C [33] of 11.4%. The viability, T/C [34] was 10.9%, the viability, T/C [45] was 11% and the viability, T/C [46] was 11.1%. It also gave a viability, T/C [23] of 13.2%, a viability, T/C [24] of 10.8% and a viability, T/C [35] of 12.5%. For the same compound, the viability, T/C [36] was 12.4%, the viability, T/C [47] was 11.9% and the viability, T/C [48] was 12%.
With `O=C(c1cc(Cc2n[nH]c(=O)c3ccccc23)ccc1F)N1CCN(C(=O)C2CC2)CC1` + COC1C(OC(N)=O)C(O)C(Oc2ccc3c(O)c(NC(=O)c4ccc(O)c(CC=C(C)C)c4)c(=O)oc3c2C)OC1(C)C the IC50 (second compound 0.0316 µM) was > 10000 nM, the IC50 (second compound 0.1 µM) was > 10000 nM and the IC50 (second compound 0.316 µM) was > 10000 nM. For the same compound, the IC50 (second compound 1 µM) was > 10000 nM, the IC50 (second compound 3.16 µM) was > 10000 nM and the IC50 (second compound 10 µM) was > 10000 nM. The viability, T/C [3] was 103%, the viability, T/C [4] was 105% and the viability, T/C [25] was 96.9%. It also gave a viability, T/C [26] of 116%, a viability, T/C [37] of 93.7% and a viability, T/C [38] of 61.6%. It also gave a viability, T/C [7] of 106%, a viability, T/C [8] of 113% and a viability, T/C [27] of 106%. It also gave a viability, T/C [28] of 116%, a viability, T/C [39] of 94.6% and a viability, T/C [40] of 63.2%. It also gave a viability, T/C [11] of 110%, a viability, T/C [12] of 107% and a viability, T/C [29] of 99.4%. It also gave a viability, T/C [30] of 113%, a viability, T/C [41] of 98.3% and a viability, T/C [42] of 69.7%. The viability, T/C [15] was 121%, the viability, T/C [16] was 104% and the viability, T/C [31] was 104%. It also gave a viability, T/C [32] of 105%, a viability, T/C [43] of 97.5% and a viability, T/C [44] of 63.3%. The viability, T/C [19] was 115%, the viability, T/C [20] was 104% and the viability, T/C [33] was 109%. It also gave a viability, T/C [34] of 103%, a viability, T/C [45] of 94.7% and a viability, T/C [46] of 64.2%. For the same compound, the viability, T/C [23] was 106%, the viability, T/C [24] was 94% and the viability, T/C [35] was 95.6%. It also gave a viability, T/C [36] of 107%, a viability, T/C [47] of 99.2% and a viability, T/C [48] of 59.4%.
